# Laboratory results from the supplement of paper PMC11208160.
# Assay: recombinant UMI read abundance after kanamycin selection (control-corrected) (log10(CPM+1)); higher = more efficient recombination; extreme values may be limits of the assay; sequences stand for … in AGTGCAGAGAAAATCGGCCAGTTTTCTCTGCCTGCAGTCCGCATGCCGTGGGACCCCTTGGGTTCTAACCTGTTGCCTAGATTTATGCAGCGGACTGCCTTTCTCCCAAAGTGATAAACCGG…AGGTTGGTTTCACT; site = the 11-nt donor
# In short: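 Under IPTG (0.07 mM) plus kanamycin, or without selection, Escherichia coli carrying a UMI-tagged donor and donor-binding-loop pair library and a target plasmid for the IS621 bridge recombinase were plated in two replicates. Recombinant UMIs were PCR-amplified across the donor–target junction and sequenced. Counts were converted to CPM, averaged over replicates, scaled by control-derived factors and reported as log10(CPM+1).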
# 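Note: IS621 bridge recombinase in Escherichia coli cells against a fixed T5 target plasmid.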
row,Sequence,recombinant UMI read abundance (log10)
1,CTTCTCTCATGGACCGGTTTTCCCGGTAATCCGTATTTGTT (site CTTCTCTCTGA),0
2,CTTCTCTCATGGACCGGTTTTCCCGGTAATCCGTATTTGTT (site CTTCTCTCTTA),0.757
3,CTTCTGTCATGGACCGGTTTTCCCGGTAATCCGTATTTGTA (site CTTCTATCTTA),2.41
4,CTTCTGTCATGGACCGGTTTTCCCGGTAATCCGTATTTGTA (site CTTCTCTCTTA),0.00482
5,CTTCTGTCATGGACCGGTTTTCCCGGTAATCCGTATTTGTA (site CTTCTGTCTTA),2.01
6,CTTCTGTCATGGACCGGTTTTCCCGGTAATCCGTATTTGTA (site CTTCTTTCTTA),0
7,CTTCTTTCATGGACCGGTTTTCCCGGTAATCCGTATTTGAC (site CTTCTTTCTGT),0
8,CTTCTTTCATGGACCGGTTTTCCCGGTAATCCGTATTTGTA (site CTTCTATCTTA),0.00989
9,CTTCTTTCATGGACCGGTTTTCCCGGTAATCCGTATTTGTA (site CTTCTCTCTTA),0
10,CTTCTTTCATGGACCGGTTTTCCCGGTAATCCGTATTTGTA (site CTTCTGTCTTA),0.00353
11,CTTCTTTCATGGACCGGTTTTCCCGGTAATCCGTATTTGTA (site CTTCTTTCTTA),0
12,CTTGGACCATGGACCGGTTTTCCCGGTAATCCGTATTTGTT (site CTTGGACCTAA),0.00553
13,CTTGGATCATGGACCGGTTTTCCCGGTAATCCGTATTTGAC (site CTAGTATCTGT),0
14,CTTGGATCATGGACCGGTTTTCCCGGTAATCCGTATTTGAC (site CTTGGATCTGT),0
15,CTTGGATCATGGACCGGTTTTCCCGGTAATCCGTATTTGCA (site CTTGGATCTTG),2.59
16,CTTGGCCCATGGACCGGTTTTCCCGGTAATCCGTATTTGTA (site CTTGGCCCTTA),0.0132
17,CTTGTATCATGGACCGGTTTTCCCGGTAATCCGTATTTGAT (site CTAGTATCTGT),0
18,CTTGTATCATGGACCGGTTTTCCCGGTAATCCGTATTTGAT (site CTTGTATCTAT),1.29
19,CTTGTCTCATGGACCGGTTTTCCCGGTAATCCGTATTTGAA (site CTTGTCTCTTT),1.85

row,Sequence,recombinant UMI read abundance (log10)
1,CTTGTGGCATGGACCGGTTTTCCCGGTAATCCGTATTTGGA (site CTTGTGGCTTC),0.306
2,CTTGTGTCATGGACCGGTTTTCCCGGTAATCCGTATTTGAC (site CTAGTATCTGT),0
3,CTTGTGTCATGGACCGGTTTTCCCGGTAATCCGTATTTGAC (site CTTGTGTCTGT),0.301
4,CTTTAAACATGGACCGGTTTTCCCGGTAATCCGTATTTGTA (site CTTTAAACTTA),1.06
5,CTTTACACATGGACCGGTTTTCCCGGTAATCCGTATTTGCT (site CTATACACTAG),2.27
6,CTTTACACATGGACCGGTTTTCCCGGTAATCCGTATTTGCT (site CTCTACACTAG),1.2
7,CTTTACACATGGACCGGTTTTCCCGGTAATCCGTATTTGCT (site CTGTACACTAG),1.59
8,CTTTACACATGGACCGGTTTTCCCGGTAATCCGTATTTGCT (site CTTTACACTAG),1.81
9,CTTTACACATGGACCGGTTTTCCCGGTAATCCGTATTTGGG (site CTTTACACTCC),0.147
10,CTTTACGCATGGACCGGTTTTCCCGGTAATCCGTATTTGTT (site CTTTACGCTAA),0.6
11,CTTTCGGCATGGACCGGTTTTCCCGGTAATCCGTATTTGTG (site CTTTCGGCTCA),0.003
12,GAAAACGCATGGACCGGTTTTCCCGGTAATCCGTATTTGGA (site GAAAACGCTTC),1.02
13,GAAACCTCATGGACCGGTTTTCCCGGTAATCCGTATTTGGG (site GAAACCTCTCC),0.698
14,GAACGTGCATGGACCGGTTTTCCCGGTAATCCGTATTTGTC (site GAACGTGCTGA),2.1
15,GAAGAGTCATGGACCGGTTTTCCCGGTAATCCGTATTTGTT (site GAAGAATCTAA),3.37
16,GAAGAGTCATGGACCGGTTTTCCCGGTAATCCGTATTTGTT (site GAAGACTCTAA),0.941
17,GAAGAGTCATGGACCGGTTTTCCCGGTAATCCGTATTTGTT (site GAAGAGTCTAA),2.91
18,GAAGAGTCATGGACCGGTTTTCCCGGTAATCCGTATTTGTT (site GAAGATTCTAA),0.417
19,GAAGATTCATGGACCGGTTTTCCCGGTAATCCGTATTTGCT (site GAAGATTCTAA),0.178

row,Sequence,recombinant UMI read abundance (log10)
1,GAAGATTCATGGACCGGTTTTCCCGGTAATCCGTATTTGCT (site GAAGATTCTAC),0
2,GAAGATTCATGGACCGGTTTTCCCGGTAATCCGTATTTGCT (site GAAGATTCTAG),2.54
3,GAAGATTCATGGACCGGTTTTCCCGGTAATCCGTATTTGCT (site GAAGATTCTAT),0
4,GAAGATTCATGGACCGGTTTTCCCGGTAATCCGTATTTGTC (site GAAGATTCTAA),0.564
5,GAAGATTCATGGACCGGTTTTCCCGGTAATCCGTATTTGTC (site GAAGATTCTCA),0
6,GAAGATTCATGGACCGGTTTTCCCGGTAATCCGTATTTGTC (site GAAGATTCTGA),2.29
7,GAAGATTCATGGACCGGTTTTCCCGGTAATCCGTATTTGTC (site GAAGATTCTTA),0.965
8,GAAGCATCATGGACCGGTTTTCCCGGTAATCCGTATTTGCA (site GAAGCATCTTG),2.67
9,GAAGCGTCATGGACCGGTTTTCCCGGTAATCCGTATTTGTA (site GAAGCGTCTTA),2.88
10,GAAGGGTCATGGACCGGTTTTCCCGGTAATCCGTATTTGTT (site GAAGGGTCTAA),2.74
11,GAAGTAGCATGGACCGGTTTTCCCGGTAATCCGTATTTGGG (site GAAGTAGCTCC),0.618
12,GAAGTCGCATGGACCGGTTTTCCCGGTAATCCGTATTTGCG (site GAAGTCGCTCG),0.562
13,GAAGTCGCATGGACCGGTTTTCCCGGTAATCCGTATTTGCG (site GCAGTCGCTCG),0.0126
14,GAAGTCGCATGGACCGGTTTTCCCGGTAATCCGTATTTGCG (site GGAGTCGCTCG),0.0249
15,GAAGTCGCATGGACCGGTTTTCCCGGTAATCCGTATTTGCG (site GTAGTCGCTCG),0.023
16,GAAGTTTCATGGACCGGTTTTCCCGGTAATCCGTATTTGTT (site GAAGATTCTAA),0
17,GAAGTTTCATGGACCGGTTTTCCCGGTAATCCGTATTTGTT (site GAAGCTTCTAA),0.43
18,GAAGTTTCATGGACCGGTTTTCCCGGTAATCCGTATTTGTT (site GAAGGTTCTAA),0
19,GAAGTTTCATGGACCGGTTTTCCCGGTAATCCGTATTTGTT (site GAAGTTTCTAA),1.76
